# Structures can show the parent of a compound that is named as a salt.
# Molecular target: human GPR40 (Homo sapiens, UniProt O14842)
# Assay: FDSS-based intracellular calcium assay (Human GRP40 in vitro assay)
# Format: cell-based
# Parameters: 3xFLAG; expressed in transfected cells
# Details: cells expressing GPR40, intracellular Ca2+ response, FDSS reader; read-out: hGPR40 EC50
# Protocol: To conduct the fluorescent imaging plate reader (FLIPR)-based calcium flux assay to measure intracellular Ca^2+ response, cells expressing GPR40 are plated on 384 well plates (BD BIOCOAT® #356697) at a density of 20,000 cells/20 μL medium per well in phenol red and serum-free DMEM (GIBCO® #21063-029) and incubated overnight. Using BD kit #s 80500-310 or -301, the cells are incubated with 20 μL per well of Hank's buffered salt solution with 1.7 mM probenecid and Fluo-3 at 37° C. for 30 min. Compounds are dissolved in DMSO and diluted to desired concentrations with assay buffer and added to the cells as 3× solution (20 μL per well). Run fluorescence/luminescence reader FDSS (Hamamatsu) to read intracellular Ca^2+ response.
# Sequence of human GPR40 (O14842 whole entry): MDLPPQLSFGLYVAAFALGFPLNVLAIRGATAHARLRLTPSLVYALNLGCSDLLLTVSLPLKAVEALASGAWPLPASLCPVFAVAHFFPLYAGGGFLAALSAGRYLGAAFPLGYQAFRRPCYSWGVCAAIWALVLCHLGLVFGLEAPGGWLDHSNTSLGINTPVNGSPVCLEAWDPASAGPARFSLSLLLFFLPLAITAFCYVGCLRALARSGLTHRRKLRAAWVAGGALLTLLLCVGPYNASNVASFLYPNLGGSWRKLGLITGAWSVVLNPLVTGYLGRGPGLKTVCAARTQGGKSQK
row,Compound,EC50 [nM]
1,"COc1ccc(F)c(N2CCC(Oc3ccc(N4C[C@H](C(F)(F)F)C[C@@H]4CC(=O)O)cc3)C2)c1 (single isomer, unassigned) [Example 12, Isomer 1, HCl]",2800
2,"COc1ccc(F)c(N2CCC(Oc3ccc(N4C[C@H](C(F)(F)F)C[C@@H]4CC(=O)O)cc3)C2)c1 (single isomer, unassigned) [Example 12, Isomer 2, HCl]",5400
3,"COc1ccc(F)c(N2CCC(Oc3ccc(N4C[C@H](OC)C[C@@H]4CC(=O)O)cc3)CC2C)c1 (single isomer, unassigned) [Example 13, Isomer 1, HCl]",710
4,"COc1ccc(F)c(N2CCC(Oc3ccc(N4C[C@H](OC)C[C@@H]4CC(=O)O)cc3)CC2C)c1 (single isomer, unassigned) [Example 13, Isomer 2, HCl]",160
5,"COc1ccc(F)c(N2CCC(Oc3ccc(N4C[C@H](OC)C[C@@H]4CC(=O)O)cc3)C(C)C2)c1 (single isomer, unassigned) [Example 17, Isomer 1]",340
6,"COc1ccc(F)c(N2CCC(Oc3ccc(N4C[C@H](OC)C[C@@H]4CC(=O)O)cc3)C(C)C2)c1 (single isomer, unassigned) [Example 17, Isomer 2]",64
7,"COc1ccc(F)c(N2CCC(Oc3ccc(N4CC(C(F)(F)F)C(C)C4CC(=O)O)cc3)CC2)c1 (single isomer, unassigned) [Example 26, Isomer 2, 2-((2,3-trans,3,4-trans)-1-(4-((1-(2-Fluoro-5-methoxyphenyl)piperidin-4-yl)oxy)phenyl)-3-methyl-4-(trifluoromethyl)pyrrolidin-2-yl)acetic acid, HCl]",8400
8,"COc1cc(N2CCC(Oc3ccc(N4C[C@H](C(F)(F)F)C[C@@H]4CC(=O)O)cc3)C(C)C2)c(Cl)cn1 (single isomer, unassigned) [Example 27, Isomer 1, HCl]",440
9,"COc1cc(N2CCC(Oc3ccc(N4C[C@H](C(F)(F)F)C[C@@H]4CC(=O)O)cc3)C(C)C2)c(Cl)cn1 (single isomer, unassigned) [Example 27, Isomer 2, HCl]",130
10,"COc1cc(N2CCC(Oc3ccc(N4C[C@H](C(F)(F)F)C[C@@H]4CC(=O)O)cc3)C(F)C2)c(Cl)cn1 (single isomer, unassigned) [Example 28, Isomer 1, HCl]",330
11,"COc1cc(N2CCC(Oc3ccc(N4C[C@H](C(F)(F)F)C[C@@H]4CC(=O)O)cc3)C(F)C2)c(Cl)cn1 (single isomer, unassigned) [Example 28, Isomer 2, HCl]",210
12,"CCOc1ccc(F)c(N2CCC(Oc3ccc(N4C[C@H](C(F)(F)F)C[C@@H]4CC(=O)O)cc3)C(CC)C2)c1 (single isomer, unassigned) [Example 33, Isomer 1, HCl]",1900
13,"CCOc1ccc(F)c(N2CCC(Oc3ccc(N4C[C@H](C(F)(F)F)C[C@@H]4CC(=O)O)cc3)C(CC)C2)c1 (single isomer, unassigned) [Example 33, Isomer 2, HCl]",430
14,"CCOc1ccc(F)c(N2CCC(Oc3ccc(N4C[C@H](C(F)(F)F)C[C@@H]4CC(=O)O)cc3)C(CC(C)C)C2)c1 (single isomer, unassigned) [Example 35, Isomer 1, HCl]",1800
15,"CCOc1ccc(F)c(N2CCC(Oc3ccc(N4C[C@H](C(F)(F)F)C[C@@H]4CC(=O)O)cc3)C(Cc3ccccc3)C2)c1 (single isomer, unassigned) [Example 36, Isomer 1, HCl]",6000
16,"CCOc1ccc(F)c(N2CCC(Oc3ccc(N4C[C@H](C(F)(F)F)C[C@@H]4CC(=O)O)cc3)C(Cc3ccccc3)C2)c1 (single isomer, unassigned) [Example 36, Isomer 2, HCl]",740
17,"CCOc1ccc(F)c(N2CCC(Oc3ccc(N4C[C@H](C(F)(F)F)C[C@@H]4CC(=O)O)cc3)C(C)C2C)c1 (single isomer, unassigned) [Example 44, Isomer 1, HCl]",500
18,"CCOc1ccc(F)c(N2CCC(Oc3ccc(N4C[C@H](C(F)(F)F)C[C@@H]4CC(=O)O)cc3)C(C)C2C)c1 (single isomer, unassigned) [Example 44, Isomer 2, HCl]",505
19,"COc1ccc(F)c(N2CCC(Oc3ccc(N4CCCC4CC(=O)O)cc3)CC2)c1 (single isomer, unassigned) [Example 48, Isomer 1, 2-(1-(4-((1-(2-Fluoro-5-methoxyphenyl)piperidin-4-yl)oxy)phenyl)pyrrolidin-2-yl)acetic acid]",4100
20,"COc1ccc(F)c(N2CCC(Oc3ccc(N4CC(F)(F)C[C@@H]4CC(=O)O)cc3)C(C)C2)c1 (single isomer, unassigned) [Example 53, Isomer 1, HCl]",410
21,"COc1ccc(C)c(N2CCC(Oc3ccc(N4C[C@H](OC)C[C@@H]4CC(=O)O)cc3)C(C)C2)c1 (single isomer, unassigned) [Example 64, Isomer 1]",240

row,Compound,EC50 [nM]
1,"COc1ccc(C)c(N2CCC(Oc3ccc(N4C[C@H](OC)C[C@@H]4CC(=O)O)cc3)C(C)C2)c1 (single isomer, unassigned) [Example 64, Isomer 2]",120
2,"COc1ccc(C2CCCC2(C)C)c(N2CCC(Oc3ccc(N4C[C@H](OC)C[C@@H]4CC(=O)O)cc3)CC2)c1 (single isomer, unassigned) [Example 65, Isomer 2]",120
3,"COc1cc(N2CCC(Oc3ccc(N4C[C@H](OC)C[C@@H]4CC(=O)O)cc3)C(C)C2)c(F)cn1 (single isomer, unassigned) [Example 83, Isomer 1]",4800
4,"COc1cc(N2CCC(Oc3ccc(N4C[C@H](OC)C[C@@H]4CC(=O)O)cc3)C(C)C2)c(F)cn1 (single isomer, unassigned) [Example 83, Isomer 2]",370
5,"COc1cc(N2CCC(Oc3ccc(N4C[C@H](OC)C[C@@H]4CC(=O)O)cc3)C(C)C2)c(Cl)cn1 (single isomer, unassigned) [Example 84, Isomer 1, TFA]",730
6,"COc1cc(N2CCC(Oc3ccc(N4C[C@H](OC)C[C@@H]4CC(=O)O)cc3)C(C)C2)c(Cl)cn1 (single isomer, unassigned) [Example 84, Isomer 2, TFA]",180
7,"COc1cc(N2CCC(Oc3ccc(N4C[C@H](OC)CC4CC(=O)O)c(F)c3F)C(C)C2)c(Cl)cn1 (single isomer, unassigned) [Example 141, Isomer 1]",410
8,"COc1cc(N2CCC(Oc3ccc(N4C[C@H](OC)CC4CC(=O)O)c(F)c3F)C(C)C2)c(Cl)cn1 (single isomer, unassigned) [Example 141, Isomer 2]",5600
9,"COc1cc(N2CCC(Oc3ccc(N4C[C@H](OC)CC4CC(=O)O)c(F)c3F)C(C)C2)c(Cl)cn1 (single isomer, unassigned) [Example 141, Isomer 3]",4700
10,"COc1cc(N2CCC(Oc3ccc(N4C[C@H](OC)[C@@H](F)[C@@H]4CC(=O)O)cc3)C(C)C2)c(Cl)cn1 (single isomer, unassigned) [Example 147, Isomer 1, HCl]",170
11,"COc1cc(N2CCC(Oc3ccc(N4C[C@H](OC)[C@@H](C)[C@@H]4CC(=O)O)cn3)C(C)C2)c(C2CCCC2(C)C)cn1 (single isomer, unassigned) [Example 150, Isomer 1, HCl]",320
12,"COc1cc(N2CCC(Oc3ccc(N4C[C@H](OC)[C@@H](C)[C@@H]4CC(=O)O)cn3)C(C)C2)c(C2CCCC2(C)C)cn1 (single isomer, unassigned) [Example 150, Isomer 2, HCl]",110
13,"COc1cc(N2CCC(Oc3ccc(N4C[C@H](OC)[C@@H](C)[C@@H]4CC(=O)O)cn3)CC2)c(C2CCCC2(C)C)cn1 (single isomer, unassigned) [Example 151, Isomer 2, HCl]",140
14,"COc1cc(N2CCC(Oc3ccc(N4C[C@H](OC)[C@@H](C)[C@@H]4CC(=O)O)cc3)C(C)C2)c(F)cc1F (single isomer, unassigned) [Example 169, Isomer 1]",3500
15,"COc1cc(N2CCC(Oc3ccc(N4C[C@H](OC)[C@@H](C)[C@@H]4CC(=O)O)cc3)C(C)C2)c(F)cc1F (single isomer, unassigned) [Example 169, Isomer 2]",450
16,"COCC1CN(c2cc(OC)ncc2Cl)CCC1Oc1ccc(N2C[C@H](C(F)(F)F)C[C@@H]2CC(=O)O)cc1 (single isomer, unassigned) [Example 172, Isomer 1, TFA]",1800
17,"COCC1CN(c2cc(OC)ncc2Cl)CCC1Oc1ccc(N2C[C@H](C(F)(F)F)C[C@@H]2CC(=O)O)cc1 (single isomer, unassigned) [Example 172, Isomer 2, TFA]",460
18,"CCO[C@@H]1C[C@H](CC(=O)O)N(c2ccc(OC3CCN(c4cc(OC)ccc4F)CC3)cc2)C1 [Example 2, 2-((2R,4R)-4-Ethoxy-1-(4-((1-(2-fluoro-5-methoxyphenyl)piperidin-4-yl)oxy)phenyl)pyrrolidin-2-yl)acetic acid, HCl]",120
19,"COc1ccc(F)c(N2CCC(Oc3ccc(N4C[C@H](c5ccccc5)C[C@@H]4CC(=O)O)cc3)CC2)c1 [Example 3, 2-((2R,4S)-1-(4-((1-(2-Fluoro-5-methoxyphenyl)piperidin-4-yl)oxy)phenyl)-4-phenylpyrrolidin-2-yl)acetic acid, HCl]",210
20,"COc1ccc(F)c(N2CCC(Oc3ccc(N4CC(F)(F)C[C@@H]4CC(=O)O)cc3)CC2)c1 [Example 5, (S)-2-(4,4-Difluoro-1-(4-((1-(2-fluoro-5-methoxyphenyl)piperidin-4-yl)oxy)phenyl)pyrrolidin-2-yl)acetic acid, TFA]",66

# From patent publication US9714231B2, “Pyrrolidine GPR40 modulators” (BRISTOL-MYERS SQUIBB COMPANY, priority 2012, dated 2017)
